Measurements as given in patent US20250346582A1, “SPLEEN TYROSINE KINASE INHIBITORS AND METHODS OF USE THEREOF” (THE BOARD OF TRUSTEES OF THE UNIVERSITY OF ILLINOIS, priority 2022, published 2025).

Tests used:
[1] = biological target: T1, PLCγ2-cSH2 (Homo sapiens, UniProt P16885); experiment: Fluorescence quenching vesicle binding assay, PLCγ2-cSH2; conditions: Table 4; POPC/POPS/PIP3/dabsyl-PE (67:20:3:10) vesicles (40 μM); read-out: Imax (%)
T1 construct: polyhistidine (N); made in house; host or cells: Escherichia coli BL21 (DE3) pLysS
T1 sequence (P16885 646-735 limits assumed): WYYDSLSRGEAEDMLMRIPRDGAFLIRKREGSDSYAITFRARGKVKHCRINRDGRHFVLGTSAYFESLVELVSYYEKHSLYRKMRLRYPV
Protocol: (§1) The membrane-binding assay is based on fluorescence quenching of EGFP fused to a SH2 domain by a dark quencher containing lipid, dabsyl-PE, incorporated in lipid vesicles. The plate reader assay was performed using the Synergy™ Neo spectrofluorometer at 25° C. Nontreated black polystyrene 96-well plates (Corning) were used. Protein (10-50 nM) with the increasing concentration of vesicles with a given lipid composition in 20 mM Tris buffer, pH 7.4, containing 0.16 M NaCl was added to each row of wells and the EGFP fluorescence emission at 516 nm was measured with excitation set at 485 nm. Z′ factor for the assay system was determined as described^74. Imax and IC50 values of inhibitors were determined using the equation, I=Imax/(1+IC50/[I]) where I and [I] indicate % inhibition and inhibitor concentration, respectively. The average and standard deviation values were obtained from triplicate determinations.
(§2) We also optimized a recently developed fluorescence quenching-based lipid-binding assay^47 for high-throughput screening of these molecules for their inhibitory activity against the PIP3-SH2 interaction. Specifically, we expressed SH2 domains as EGFP-tagged proteins and directly quantified their membrane binding by monitoring the quenching of EGFP fluorescence emission intensity by a dark quencher-containing lipid, N-dimethylaminoazo-benzenesulfonyl-phosphatidylethanolamine (dabsyl-PE), incorporated in the vesicles. We then screened for compounds that inhibited binding of Syk-cSH2, BLNK-SH2, and PLCγ2-cSH2, respectively, to 1-palmitoyl-2-oleoyl-PC (POPC)/1-palmitoyl-2-oleoyl-PS (POPS)/PIP3/dabsyl-PE (67:20:3:10) vesicles while eliminating those that inhibit their non-specific binding to anionic POPC/POPS/dabsyl-PE (70:20:10) vesicles. The quality of the screening system was evaluated using 1% dimethylsulfoxide (DMSO) and 20 μM D-myo-inositol-1,3,4,5-tetraphosphate (IP4) as negative and positive controls, respectively. The clear separation of positive and negative control data and the average Z′-factor of 0.7 supported the robustness of our system for high-throughput screen of PIP3-SH2 interaction inhibitors.

[2] = biological target: T2, ZAP70-cSH2 (Homo sapiens, UniProt P43403); experiment: Fluorescence quenching vesicle binding assay, ZAP70-cSH2; conditions: for Emax: read-out: Imax (%); for inhibition of ZAP-70-cSH2 binding to POPC/POPS/PIP3/dabsyl-PE vesicles: in words
T2 construct: polyhistidine (N); made in house; host or cells: Escherichia coli BL21 (DE3) pLysS
T2 sequence (P43403 163-254 limits assumed): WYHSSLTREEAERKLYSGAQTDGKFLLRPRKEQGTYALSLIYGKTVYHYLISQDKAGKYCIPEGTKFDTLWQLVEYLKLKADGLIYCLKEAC
Protocol: as §1, §2

[3] = system: BCR signaling axis (Syk-BLNK-PLCγ2); experiment: Western blot of BCR signaling axis in Raji B lymphocytes; assay type: cell-based; conditions: Raji B cells
Protocol: (§3) Cells were seeded at a density of 3.0×10^5 cells/well prior to incubation with inhibitors. Cells were incubated with 1-5 μM of Syk inhibitors overnight and stimulated with different antibodies: IgG2 for AML cells, IgM for Raji B cells, and OKT3 (Biolegend) for Jurkat cells. The cells were lysed in NP40 lysis buffer (50 mM Tris, pH 7.5, 150 mM NaCl, 1 mM EDTA, 1% NP40, 10% glycerol, 10 mM NaF, 10 mM Na3VO4, and the protease inhibitor cocktail) at 4° C. and the cell debris was removed by centrifugation. Samples were analyzed by SDS-PAGE. Proteins were separated and transferred to Immobilon-P polyvinylidene difluoride membrane (Millipore Sigma). The membrane was blocked with 5% bovine serum albumin for 1 h and incubated overnight at 4° C. with various antibodies (1:1000 dilution for all antibodies). After the unbound antibodies were removed by washing with 0.1% Tris buffer saline with 0.1% Tween20, the membranes were incubated with the horseradish peroxidase secondary antibody (1:5000 dilution) for 1 h at room temperature. The membranes were washed three more times with 0.1% Tris buffer saline with 0.1% Tween20 to remove the unbound horseradish peroxidase secondary antibody before imaging. The chemiluminescence intensity of protein bands in the gel was analyzed and documented by the Azure 500Q Imaging System.

[4] = system: phosphorylation of Syk, ERK1/2 and STAT3/5; experiment: Western blot of phosphorylation in entospletinib-resistant MV4-11 cells; assay type: cell-based; conditions: 5 μM
Protocol: as §3
Then the concentration was maintained at 5 μM.

[5] = biological target: T3, pZAP70 (Homo sapiens, UniProt P43403); experiment: Western blot inhibition of ZAP70 phosphorylation in Jurkat T cells; assay type: cell-based; conditions: for Emax: Immunoblotting, pZAP70, Western blot assay in Jurkat T cells, read-out: Imax (%); for inhibition of ZAP-70 phosphorylation: Jurkat T cells stimulated by OKT3, 5 μM overnight
T3 construct: host or cells: Jurkat T cells, OKT3-stimulated
T3 sequence (P43403 1-619): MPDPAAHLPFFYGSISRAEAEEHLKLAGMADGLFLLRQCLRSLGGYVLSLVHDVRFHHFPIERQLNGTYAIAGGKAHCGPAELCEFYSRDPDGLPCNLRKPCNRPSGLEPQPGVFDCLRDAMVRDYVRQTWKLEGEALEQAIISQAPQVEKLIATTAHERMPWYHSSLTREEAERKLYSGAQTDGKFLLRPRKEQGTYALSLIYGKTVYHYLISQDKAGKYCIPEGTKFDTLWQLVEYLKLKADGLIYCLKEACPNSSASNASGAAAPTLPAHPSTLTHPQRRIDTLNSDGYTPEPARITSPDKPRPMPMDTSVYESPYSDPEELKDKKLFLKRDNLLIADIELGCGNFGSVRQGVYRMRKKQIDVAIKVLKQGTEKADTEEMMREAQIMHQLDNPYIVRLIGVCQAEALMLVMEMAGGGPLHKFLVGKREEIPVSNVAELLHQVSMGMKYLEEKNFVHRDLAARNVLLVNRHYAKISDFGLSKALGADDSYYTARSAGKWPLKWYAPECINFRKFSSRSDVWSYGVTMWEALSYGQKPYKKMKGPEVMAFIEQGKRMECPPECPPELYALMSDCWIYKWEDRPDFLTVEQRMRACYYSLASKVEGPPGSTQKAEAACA
Protocol: (a) Cellular efficacy of WC35, WC36, and WC38 was determined by dose-dependent inhibition of Syk phosphorylation in Raji B cells. (b) Imax and IC50 values were determined by non-linear least-squares analysis of data using the equation: […] Each data represents average ±s.d. from triplicate measurements. […] Jurkat T cells were stimulated by OKT3. Cells were seeded at a density of 3.0×10^5 cells/well prior to incubation with inhibitors. […] IgG2 for AML cells, IgM for Raji B cells, and OKT3 (Biolegend) for Jurkat cells. […] Samples were analyzed by SDS-PAGE. Proteins were separated and transferred to Immobilon-P polyvinylidene difluoride membrane (Millipore Sigma). […] The chemiluminescence intensity of protein bands in the gel was analyzed and documented by the Azure […] Imaging System.

[6] = biological target: T4, Syk-cSH2 (Homo sapiens, UniProt P43405); experiment: Fluorescence quenching vesicle binding assay, Syk-cSH2; conditions: for IC50: read-out: IC50
T4 construct: polyhistidine (N); made in house; host or cells: Escherichia coli BL21 (DE3) pLysS
Protocol: as §1, §2

[7] = Table 4, POPC/POPS/PIP3/dabsyl-PE (67:20:3:10) vesicles (40 μM)
[8] = Table 3, efficacy determined by the vesicle binding assay

Emax [1] [%]	Emax [2, 7] [%]	inhibition of ZAP-70-cSH2 binding to POPC/POPS/PIP3/dabsyl-PE vesicles [2]	Emax [5] [%]	Imax (%) [6, 8]	IC50 [6, 8] [nM]	Imax (%) [6, 7] [%]	IC50 [2, 7] [nM]	SMILES	effect on phosphorylation of BCR signaling proteins (Syk, BLNK, PLCγ2) [3]	inhibition of phosphorylation of Syk, ERK1/2 and STAT3/5 [4]	inhibition of ZAP-70 phosphorylation [5]
< 10	< 20	did not inhibit binding	< 10	Imax (%) = 50	150	50 ± 5	–	[N-]=[N+]=C(C(=O)OC1CCCCC1)C(Nc1ncccn1)c1ccco1 (racemic) [WC35, Cyclohexyl 2-diazo-3-(furan-2-yl)-3-(pyrimidin-2-ylamino)propanoate]	effectively suppressed phosphorylation of all BCR signaling proteins	significantly less active than WC36	did not inhibit phosphorylation and activation of ZAP-70
< 10	< 10	did not inhibit binding	< 10	Imax (%) = 60	40	60 ± 5	–	[N-]=[N+]=C(C(=O)OC1CCCCC1)C(Nc1ncccn1)c1c[nH]c2ccccc12 (racemic) [WC36, Cyclohexyl 2-diazo-3-(1H-indol-3-yl)-3-(pyrimidin-2-ylamino)propanoate]	effectively suppressed phosphorylation of all BCR signaling proteins	potently suppressed the phosphorylation and activation of Syk, ERK1/2, and STAT3/5	did not inhibit phosphorylation and activation of ZAP-70
< 10	30 ± 5	did not inhibit binding	< 10	Imax (%) = 70	120	70 ± 5	340 ± 20	[N-]=[N+]=C(C(=O)OC1CCCCC1)C(Nc1ncccn1)c1ccc[nH]1 (racemic) [WC38, Cyclohexyl 2-diazo-3-(pyrimidin-2-ylamino)-3-(1H-pyrrol-2-yl)propanoate]	effectively suppressed phosphorylation of all BCR signaling proteins	significantly less active than WC36	did not inhibit phosphorylation and activation of ZAP-70
